pIC50, pKd: −log10 of the molar value. Like-named read-outs stand apart in the source and are kept apart here. *1 amine or outer side, *2 acyl side, *3 side chain or, on linkers, in order; H or OH if unused. Where a SMILES comes first, the peptide text is derived from it. Bridges are numbered along the chain shown (N, C = ends). [ ]: non-standard residue; d: D form. The star is where a group is joined. hPhe(3,5-F2-4-CF3) = N[C@@H](CCc1cc(F)c(C(F)(F)F)c(F)c1)C(=O)O; NPrPhe(4-CF3) = CCCN[C@@H](Cc1ccc(C(F)(F)F)cc1)C(=O)O; X1 = CN([C@@H](CCCC=[*:3])C(=O)[*:2])[*:1]; X2 = C[C@@](CC=[*:3])(N[*:1])C(=O)[*:2]; NMeGly(cPent) = CN[C@H](C(=O)O)C1CCCC1; Hyp = O=C(O)[C@@H]1C[C@@H](O)CN1; NMeD = CN[C@@H](CC(=O)O)C(=O)O; Morpholide = C1CN(*)CCO1; Sar = CNCC(=O)O
Columns and labels:
[1] = target: GDP-bound KRAS wild-type protein (Homo sapiens, UniProt P01116); assay: Binding to KRAS by surface plasmon resonance (SPR), Single Cycle Kinetics; settings: GDP-bound KRAS wild-type protein
[2] = target: GDP-bound NRAS wild-type protein (Homo sapiens, UniProt P01111); assay: Binding to NRAS by surface plasmon resonance (SPR), Single Cycle Kinetics; settings: SPR; for NRAS/KRAS (ratio of KD value with respect to NRAS to KD value with respect to KRAS): GDP-bound NRAS wild-type vs GDP-bound KRAS wild-type; for NRAS/KRAS (ratio of KD value for GDP-bound NRAS wild-type protein to KD value for KRAS): KD ratio class
[3] = target: GDP-bound HRAS wild-type protein (Homo sapiens, UniProt P01112); assay: Binding to HRAS by surface plasmon resonance (SPR), Single Cycle Kinetics; settings: SPR; for HRAS/KRAS (ratio of KD value with respect to HRAS to KD value with respect to KRAS): GDP-bound HRAS wild-type vs GDP-bound KRAS wild-type; for HRAS/KRAS (ratio of KD value for GDP-bound HRAS wild-type protein to KD value for KRAS): KD ratio class
[4] = system: human lung cancer strain NCI-H441
[5] = SPR Single Cycle Kinetics, 1:1 binding model
[6] = read-out: NCI-H441 IC50, NCI-H441 cells, 4 days, CellTiter-Glo

GDP-bound NRAS wild-type protein, sequence (P01111 whole entry): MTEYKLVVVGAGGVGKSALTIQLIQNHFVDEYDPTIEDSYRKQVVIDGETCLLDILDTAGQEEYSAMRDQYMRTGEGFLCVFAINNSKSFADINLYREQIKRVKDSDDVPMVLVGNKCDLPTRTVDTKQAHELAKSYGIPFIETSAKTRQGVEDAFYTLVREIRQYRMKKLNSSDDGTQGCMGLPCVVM
GDP-bound HRAS wild-type protein, sequence (P01112 whole entry): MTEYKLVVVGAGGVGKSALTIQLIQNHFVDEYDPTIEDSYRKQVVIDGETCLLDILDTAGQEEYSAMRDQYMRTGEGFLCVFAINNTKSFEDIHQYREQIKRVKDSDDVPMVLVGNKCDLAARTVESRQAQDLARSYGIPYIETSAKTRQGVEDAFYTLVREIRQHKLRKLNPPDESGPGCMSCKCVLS

Compound	pKd [1, 5]	NRAS/KRAS (ratio of KD value with respect to GDP-bound NRAS wild-type protein to KD value with respect to KRAS) [2]	HRAS/KRAS (ratio of KD value with respect to GDP-bound HRAS wild-type protein to KD value with respect to KRAS) [3]	pIC50 [4]	pKd ([1]; SPR, Single Cycle Kinetics)	NRAS/KRAS (ratio of KD value with respect to NRAS to KD value with respect to KRAS) [2]	HRAS/KRAS (ratio of KD value with respect to HRAS to KD value with respect to KRAS) [3]	NRAS/KRAS (ratio of KD value for GDP-bound NRAS wild-type protein to KD value for KRAS) [2]	HRAS/KRAS (ratio of KD value for GDP-bound HRAS wild-type protein to KD value for KRAS) [3]	pIC50 [4, 6]
CC[C@H](C)C1NC(=O)[C@H](CC(C)C)N(C)C(=O)C[C@@H](C(=O)N(C)C)N(C)C(=O)[C@H](C2CCCC2)N(C)C(=O)C2(CCCC2)NC(=O)C2CCCN2C(=O)[C@@H](CCc2ccc(C(F)(F)F)c(Cl)c2)NC(=O)CN(C)C(=O)[C@@H](Cc2ccc(C(F)(F)F)cc2)N2CC/C=C\CCN(CC2=O)C(=O)CN(C)C1=O (stereo partly shown) [PP0619]	8.43	C (A compound having a KD ratio of 0.1 or more and less than 3 is denoted as C)	C (A compound having a KD ratio of 0.1 or more and less than 3 is denoted as C)	7.15						
CC[C@H](C)[C@@H]1NC(=O)[C@H](CC(C)C)N(C)C(=O)C[C@@H](C(=O)N(C)C)N(C)C(=O)[C@H](C2CCCC2)N(C)C(=O)C2(CCCC2)NC(=O)[C@@H]2CCCN2C(=O)[C@H](CCc2ccc(C(F)(F)F)c(Cl)c2)NC(=O)CN(C)C(=O)[C@H](Cc2ccc(C(F)(F)F)cc2)N2CC=C(C)C[C@@H](C2=O)N(C)C(=O)CN(C)C1=O [PP0621]	8.62	C (A compound having a KD ratio of 0.1 or more and less than 3 is denoted as C)	C (A compound having a KD ratio of 0.1 or more and less than 3 is denoted as C)	7.08						
CC[C@H](C)[C@@H]1NC(=O)[C@H](CC(C)C)N(C)C(=O)C[C@@H](C(=O)N(C)C)N(C)C(=O)[C@H](C2CCCC2)N(C)C(=O)C2(CCCC2)NC(=O)[C@@H]2CCCN2C(=O)[C@H](CCc2ccc(C(F)(F)F)c(Cl)c2)NC(=O)CN(C)C(=O)[C@H](Cc2ccc(C(F)(F)F)cc2)N2C/C=C\COC[C@@H](C2=O)N(C)C(=O)CN(C)C1=O [PP0626]	8.15	C (A compound having a KD ratio of 0.1 or more and less than 3 is denoted as C)	C (A compound having a KD ratio of 0.1 or more and less than 3 is denoted as C)	6.80						
CCCN1C(=O)CN(C)C(=O)CN(C)C(=O)[C@H]([C@@H](C)CC)NC(=O)[C@@H]2CCC/C=C\C[C@](C)(NC(=O)[C@@H]3C[C@@H](OCC)CN3C(=O)[C@H](CCc3cc(F)c(C(F)(F)F)c(F)c3)NC(=O)CN(C)C(=O)[C@@H]1Cc1ccc(C(F)(F)F)cc1)C(=O)N(C)[C@@H](C1CCCC1)C(=O)N(C)[C@H](C(=O)N1CCOCC1)CC(=O)N2C [PP0901] ([X1]I[Sar][Sar][NPrPhe(4-CF3)][Sar][hPhe(3,5-F2-4-CF3)][Hyp](Et)[X2][NMeGly(cPent)][NMeD]-Morpholide; staple (Z) 1-9; lactam N-11)				6.48	8.52	B (a compound having 3 or more and less than 10 is denoted as B)	B (a compound having 3 or more and less than 10 is denoted as B)			
CCO[C@@H]1C[C@H]2C(=O)NC3(CCC3)C(=O)N(C)[C@@H](C3CCCC3)C(=O)N(CC)[C@H](C(=O)N(C)C)CC(=O)N(C)[C@@H](CC)C(=O)N[C@@H]([C@@H](C)CC)C(=O)N(C)CC(=O)N(C)[C@H]3CCCCCN(C3=O)[C@@H](Cc3ccc(F)cc3)C(=O)N(C)CC(=O)N[C@@H](CCc3cc(F)c(C(F)(F)F)c(F)c3)C(=O)N2C1 [PP0904]				7.23	9.10	B (a compound having 3 or more and less than 10 is denoted as B)	B (a compound having 3 or more and less than 10 is denoted as B)			
CCO[C@@H]1C[C@H]2C(=O)NC3(CCC3)C(=O)N(C)[C@@H](C3CCCC3)C(=O)N(CC)[C@H](C(=O)N3CCOCC3)CC(=O)N(C)[C@@H](CC)C(=O)N[C@@H]([C@@H](C)CC)C(=O)N(C)CC(=O)N(C)[C@H]3CCCCCN(C3=O)[C@@H](Cc3ccc(F)cc3)C(=O)N(C)CC(=O)N[C@@H](CCc3cc(F)c(C(F)(F)F)c(F)c3)C(=O)N2C1 [PP0905]				7.04	9.10	B (a compound having 3 or more and less than 10 is denoted as B)	B (a compound having 3 or more and less than 10 is denoted as B)			
CCO[C@@H]1C[C@H]2C(=O)NC3(CCC3)C(=O)N(C)[C@@H](C3CCCC3)C(=O)N(C)[C@H](C(=O)N(C)C)CC(=O)N(C)[C@@H](CC)C(=O)N[C@@H]([C@@H](C)CC)C(=O)N(C)CC(=O)N(C)[C@H]3CCCCCN(C3=O)[C@@H](Cc3ccc(F)cc3F)C(=O)N(C)CC(=O)N[C@@H](CCc3cc(F)c(C(F)(F)F)c(F)c3)C(=O)N2C1 [PP0906]				7.43	9.54	B (a compound having 3 or more and less than 10 is denoted as B)	B (a compound having 3 or more and less than 10 is denoted as B)			
CCO[C@@H]1C[C@H]2C(=O)NC3(CCC3)C(=O)N(C)[C@@H](C3CCCC3)C(=O)N(C)[C@H](C(=O)N3CCOCC3)CC(=O)N(C)[C@@H](CC(C)C)C(=O)N[C@@H]([C@@H](C)CC)C(=O)N(C)CC(=O)N(C)[C@H]3CCCCCN(C3=O)[C@@H](Cc3ccc(F)cc3F)C(=O)N(C)CC(=O)N[C@@H](CCc3cc(F)c(C(F)(F)F)c(F)c3)C(=O)N2C1 [PP0916]				7.44	9.47	B (a compound having 3 or more and less than 10 is denoted as B)	B (a compound having 3 or more and less than 10 is denoted as B)			
CCCCCC[C@H]1C(=O)N[C@@H]([C@@H](C)CC)C(=O)N(C)CC(=O)N(C)[C@H]2C/C=C\CCN(C2=O)[C@@H](Cc2ccc(C(F)(F)F)cc2)C(=O)N(C)CC(=O)N[C@@H](CCc2cc(F)c(C(F)(F)F)c(F)c2)C(=O)N2C[C@H](OCC)C[C@H]2C(=O)NC2(CCC2)C(=O)N(C)[C@@H](C2CCCC2)C(=O)N(C)[C@H](C(=O)N(C)C)CC(=O)N1C [PP1242]					10.12			A (a compound having 10 or more and less than 20 is denoted as A)	A (a compound having 10 or more and less than 20 is denoted as A)	7.89
CCO[C@@H]1C[C@H]2C(=O)NC3(CCC3)C(=O)N(C)[C@@H](C3CCCC3)C(=O)N(C)[C@H](C(=O)N(C)C)CC(=O)N(C)[C@@H](CC(C)C)C(=O)N[C@@H]([C@@H](C)CC)C(=O)N(C)CC(=O)N(C)[C@H]3C/C=C\CCN(C3=O)[C@@H](Cc3ccc(C(F)(F)F)cc3)C(=O)N(C)CC(=O)N[C@@H](CCc3ccc(C(F)(F)F)c(OC)c3)C(=O)N2C1 [PP1245]					10.22			A (a compound having 10 or more and less than 20 is denoted as A)	B (a compound having 3 or more and less than 10 is denoted as B)	8.43
CCCCCC[C@H]1C(=O)N[C@@H]([C@@H](C)CC)C(=O)N(C)CC(=O)N(C)[C@H]2C/C=C\CCN(C2=O)[C@@H](Cc2ccc(C(F)(F)F)cc2)C(=O)N(C)CC(=O)N[C@@H](CCc2ccc(C(F)(F)F)c(OC)c2)C(=O)N2C[C@H](OCC)C[C@H]2C(=O)NC2(CCC2)C(=O)N(C)[C@@H](C2CCCC2)C(=O)N(C)[C@H](C(=O)N(C)C)CC(=O)N1C [PP1246]					10.09			A (a compound having 10 or more and less than 20 is denoted as A)	A (a compound having 10 or more and less than 20 is denoted as A)	8.05
CCO[C@@H]1C[C@H]2C(=O)NC3(CCC3)C(=O)N(C)[C@@H](C3CCCC3)C(=O)N(C)[C@H](C(=O)N(C)C)CC(=O)N(C)[C@@H](CC3CC3)C(=O)N[C@@H]([C@@H](C)CC)C(=O)N(C)CC(=O)N(C)[C@H]3C/C=C\CCN(C3=O)[C@@H](Cc3ccc(C(F)(F)F)cc3)C(=O)N(C)CC(=O)N[C@@H](CCc3ccc(C(F)(F)F)c(OC)c3)C(=O)N2C1 [PP1247]					10.34			A (a compound having 10 or more and less than 20 is denoted as A)	A (a compound having 10 or more and less than 20 is denoted as A)	8.19
CCO[C@@H]1C[C@H]2C(=O)NC3(CCC3)C(=O)N(C)[C@@H](C3CCCC3)C(=O)N(C)[C@H](C(=O)N(C)C)CC(=O)N(C)[C@@H](CC3CC3)C(=O)N[C@@H]([C@@H](C)CC)C(=O)N(C)CC(=O)N(C)[C@H]3C/C=C\CCN(C3=O)[C@@H](Cc3ccc(C(F)(F)F)cc3)C(=O)N(C)CC(=O)N[C@@H](CCc3ccc(Cl)c(Cl)c3)C(=O)N2C1 [PP1253]					9.70			A (a compound having 10 or more and less than 20 is denoted as A)	A (a compound having 10 or more and less than 20 is denoted as A)	7.65

From US20250230193A1, “CYCLIC COMPOUND HAVING SELECTIVE KRAS INHIBITORY EFFECT ON HRAS AND NRAS” (CHUGAI SEIYAKU KABUSHIKI KAISHA, priority 2022, published 2025)
